Test results taken from patent publication US11597739B2, “Enhancing CD8+ T cells for adoptive T cell therapy by inhibiting PTPN1 (PTP1B) and PTPN2 (TC-PTP)” (The Royal Institution for the Advancement of …, priority 2017, dated 2023).

Tests used:
[1] = system: mouse activated CD8 T cells; assay: Tcm differentiation and activation markers of stimulated mouse CD8 T cells (flow cytometry); assay type: cell-based
Experimental: 8) Stimulation of Mouse CD8 T Cells
2 μg/ml of 145-2C11 Hamster anti-Mouse CD3e in 300 μl of PBS are plated in 24 flat bottom well non-TC treated plates. Incubate O/N at 4° C. CD8 T cells from spleens of 8-12 weeks old OT-1 transgenic mice are isolated. 4×10^5 cells/ml are counted and resuspended in complete RPMI (RPMI+10% FBS heat inactivated at 55° C. for 45 min+Pen/Strep+55 μM β-Mercaptoethanol). The following 2× solutions are prepared:
a. Anti-Mouse CD28 10 μg/ml 40 U/ml rmIL-2. (40 ml)
0.5 ml of 2× solution is added to the corresponding wells. Incubate for 4-8 days. Every 2 days add inhibitor to the corresponding concentration. When the cells are confluent, expand to 6 cm tissue culture plates adding 4 ml of complete RPMI+20 U/ml of IL-2 and in b add 10 μM K884.
Calculate the specific cell lysis as follows: Specific cell lysis=((Sample−BF)/(AF−BF))×100 10) Flow Cytometry 1. Cell Activation • a. Wash cells with 1 ml of culture medium; • b. Centrifuge cells for 5 min at 300 g; • c. Resuspend cells in culture medium; • d. Prepare 2× solutions (negative control with only culture medium, Positive condition with 50 ng/mL of PMA and 500 ng/mL of lonomycin); • e. Plate 100 μL of cell suspension in 96 well plates (U-bottom); • f. Add 100 μL of 2× solutions in appropriate wells; • g. Incubate 4 hours at 37 C, 5% CO2. 2. Extracellular Staining • a. Record cell quantity transfers per tube; • b. Wash cells with 1 mL of PBS+2% FBS; • c. Centrifuge cells for 5 min at 300 g; • d. Empty tubes by inversion; • e. Add the antibodies for extracellular staining; • f. Incubate 20 min at 4° C.; • g. Wash cells with 1 mL of PBS+2% FBS; • h. Centrifuge cells for 5 min at 300 g; • i. Empty tubes by inversion; • j. Ressuspend cells in 100 μL fixation/permeabilisation buffer (eBioscience, #00-5223-56, 1 volume of concentrate buffer+3 volumes of diluent buffer) • k. Incubate 30 min at room temperature or overnight at 4° C. 3. Intracellular Staining • a. Wash cells with 1 mL of permeabilization buffer (eBioscience, #00-8333-56, dilution 1/10 in ddH2O); • b. Centrifuge cells for 5 min at 300 g; • c. […]

human T cells = assay: Treatment of human T cells with K884: central memory differentiation and cytokine production; assay type: cell-based
Experimental: Calculate the specific cell lysis as follows: Specific cell lysis=((Sample−BF)/(AF−BF))×100 10) Flow Cytometry 1. Cell Activation • a. Wash cells with 1 ml of culture medium; • b. Centrifuge cells for 5 min at 300 g; • c. Resuspend cells in culture medium; • d. Prepare 2× solutions (negative control with only culture medium, Positive condition with 50 ng/mL of PMA and 500 ng/mL of lonomycin); • e. Plate 100 μL of cell suspension in 96 well plates (U-bottom); • f. Add 100 μL of 2× solutions in appropriate wells; • g. Incubate 4 hours at 37 C, 5% CO2. 2. Extracellular Staining • a. Record cell quantity transfers per tube; • b. Wash cells with 1 mL of PBS+2% FBS; • c. Centrifuge cells for 5 min at 300 g; • d. Empty tubes by inversion; • e. Add the antibodies for extracellular staining; • f. Incubate 20 min at 4° C.; • g. Wash cells with 1 mL of PBS+2% FBS; • h. Centrifuge cells for 5 min at 300 g; • i. Empty tubes by inversion; • j. Ressuspend cells in 100 μL fixation/permeabilisation buffer (eBioscience, #00-5223-56, 1 volume of concentrate buffer+3 volumes of diluent buffer) • k. Incubate 30 min at room temperature or overnight at 4° C. 3. Intracellular Staining • a. Wash cells with 1 mL of permeabilization buffer (eBioscience, #00-8333-56, dilution 1/10 in ddH2O); • b. Centrifuge cells for 5 min at 300 g; • c. Empty tubes by inversion; • d. Add the intracellular antibodies; • e. Incubate 1 hour at 4° C.; • f. Wash cells with 1 mL of permeabilization buffer; • g. Centrifuge cells for 5 min at 300 g; • h. Empty tubes by inversion; • i. Keep tubes at 4° C. shelter from light 4. Human PBMC Isolation by Ficoll • a. Prepare 50 ml tubes; • b. Transfer blood into 50 ml tubes, with maximum of 17.5 ml per tube; • c. Add sterile PBS to dilute blood to reach 35 ml; • d. Use a dropped-in Pasteur pipet used as a tunnel; add 15 ml of Ficoll; • e. Gently install the tubes and centrifuge at 1000 g for 20 min, RT without brakes; • f. Using a 25 ml pipet, harvest the interface ring of PBMC without too much Ficoll and transfer into a 50 ml tube (maximum 15 ml per tube); • g. […]

[2] = 14 days with IL-7 and IL-15, restimulated with PMA and Ionomycin 4 hours

CCOC(=O)c1cc2cc(C(F)(F)P(=O)(O)O)c(Br)cc2s1 [Ex. 1, ((6-BROMO-2-(ETHOXYCARBONYL)BENZO[B]THIOPHEN-5-YL)DIFLUOROMETHYL)PHOSPHONATE]
expression of IL-2 receptor alpha (CD25), fluorescence ([1]; activated mouse CD8 cells, Tcm gate, compared to untreated): increase on fluorescence closer to one order of magnitude
percentage of Tcm population relative to cells with IL-15 alone ([1]; followed by 5 days incubation with recombinant murine IL-15): ~2 times
differentiation into Tcm cells (CD62Lhigh-CD27high) ([1]; mouse activated CD8 T cells, compared to untreated cells): increased differentiation into Tcm cells at higher rates than the observed in untreated cells
TNFα secretion (human T cells; [2]): enhancement of the proinflammatory cytokine TNFα secretion
production of IFNγ (human T cells; [2]): production of IFNγ is maintained
response of peripheral blood human CD8 T cells to treatment (human T cells; human CD8 T cells compared to mouse CD8 T cells): respond in equivalent manner to mouse CD8 T cells
